The text below walks through data of US10683278B2 (JINAN UNIVERSITY, priority 2015, dated 2020).

Some results are limits rather than exact numbers.

In the assay the target is T1, AXL kinase (Homo sapiens, UniProt P30530).
T1 construct: purchased Invitrogen PV4803
T1 sequence (P30530 26-894): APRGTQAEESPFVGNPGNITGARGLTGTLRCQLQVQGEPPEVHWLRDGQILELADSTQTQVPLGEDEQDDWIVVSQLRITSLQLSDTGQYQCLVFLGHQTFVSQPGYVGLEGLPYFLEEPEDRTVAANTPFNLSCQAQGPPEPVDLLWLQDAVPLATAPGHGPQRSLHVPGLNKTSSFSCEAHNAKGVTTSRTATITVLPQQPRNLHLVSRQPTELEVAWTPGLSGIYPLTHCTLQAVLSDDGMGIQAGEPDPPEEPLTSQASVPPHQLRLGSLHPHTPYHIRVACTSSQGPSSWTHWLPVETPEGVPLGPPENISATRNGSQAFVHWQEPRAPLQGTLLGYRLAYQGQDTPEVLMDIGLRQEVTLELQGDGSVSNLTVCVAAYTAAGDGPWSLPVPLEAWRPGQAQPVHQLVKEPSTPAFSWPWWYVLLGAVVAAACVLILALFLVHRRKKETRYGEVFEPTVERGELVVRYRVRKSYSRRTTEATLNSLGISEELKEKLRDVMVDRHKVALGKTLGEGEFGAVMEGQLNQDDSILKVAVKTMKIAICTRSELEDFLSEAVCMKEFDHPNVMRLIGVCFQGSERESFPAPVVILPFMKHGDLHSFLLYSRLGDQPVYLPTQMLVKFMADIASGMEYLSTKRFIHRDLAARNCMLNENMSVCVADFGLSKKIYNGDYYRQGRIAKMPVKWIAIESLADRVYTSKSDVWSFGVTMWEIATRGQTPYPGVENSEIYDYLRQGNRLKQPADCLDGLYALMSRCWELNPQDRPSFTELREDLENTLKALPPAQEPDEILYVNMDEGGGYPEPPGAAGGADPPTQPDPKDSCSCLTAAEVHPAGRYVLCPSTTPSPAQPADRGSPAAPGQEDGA
Briefly: IC50 test on AXL kinase (Z′-LYTE FRET kinase activity detection). Format: biochemical. As to conditions: Z′-LYTE FRET peptide assay, 1 h reaction. The text has this: Kinase activity detection: The activity of compounds on kinases was detected by a secondary reaction which used the Z′-LYTE™ technique (a detection using fluorescence, enzyme coupling, and based on differences in susceptibility of phosphorylated and non-phosphorylated polypeptides to proteolytic cleavage), followed the fluorescence resonance energy transfer (FRET) principle, and used Z′-LYTE™ FRET peptide substrates (Invitrogen, Z′-LYTE™ KINASE ASSAY KIT—TYR 2 PEPTIDE, PV3191). AXL kinase (invitrogen, PV4803) was diluted stepwise, FRET peptide was then added, followed by ATP, then by compounds at different concentrations, reacted for 1 h, site-specific proteases were then added to recognize and cleave non-phosphorylated FRET peptides, reacted for 1 h, and […] at 445 nm and 520 nm were detected using excitation wavelength of 400 nm.
Take `CCc1ccc2c(c1)c(=O)c(C(=O)Nc1ccc(Oc3ccnc(NCc4ccccc4)c3)c(F)c1)c(C)n2C`: the half-inhibitory concentration (IC50) is greater than 10000 nM.
With “6-ethyl-N-(3-fluoro-4-(3-phenylfuro[2,3-b]pyridin-4-yloxy)phenyl)-1,2-dimethyl-4-oxo-1,4-dihydroquinoline-3-carboxamide [GDL5000039]” the figure was 192 nM; with `CCc1ccc2c(c1)c(=O)c(C(=O)Nc1ccc(Oc3ccnc(C(N)=O)c3)c(F)c1)c(C)n2C` [GDL5000045, N-(4-(2-carbamoylpyridin-4-yloxy)-3-fluorophenyl)-6-ethyl-1,2-dimethyl-4-oxo-1,4-dihydroquinoline-3-carboxamide], 4380 nM.
With `CCc1ccc2c(c1)c(=O)c(C(=O)Nc1ccc(Oc3ccnc(N)c3)c(F)c1)c(C)n2C` [GDL5000050, N-(4-(2-aminopyridin-4-yloxy)-3-fluorophenyl)-6-ethyl-1,2-dimethyl-4-oxo-1,4-dihydroquinoline-3-carboxamide] the figure was 888 nM.
The same measure for `CC1CCc2c(N3CCC(O)CC3)c(F)cc3c(=O)c(C(=O)Nc4ccc(Oc5ncnc6[nH]cc(-c7ccccc7)c56)c(F)c4)cn1c23` (centres unmarked) [GDL5000076, 9-fluoro-N-(3-fluoro-4-((5-phenyl-7H-pyrrolo[2,3-d]pyrimidin-4-yl)oxy)phenyl)-8-(4-hydroxypiperidin-1-yl)-5-methyl-1-oxo-1,5,6,7-tetrahydropyrido[3,2,1-ij]quinoline-2-carboxamide]: 627 nM; for `COc1cc2ncnc(Oc3ccc(NC(=O)c4c5n(c6cc(N7CCN(Cc8oc(=O)oc8C)CC7)c(F)cc6c4=O)C(C)S5)cc3F)c2cc1OC` (centres unmarked) [GDL5000082, N-(4-((6,7-dimethoxyquinazolin-4-yl)oxy)-3-fluorophenyl)-6-fluoro-1-methyl-7-(4-((5-methyl-2-oxo-1,3-dioxol-4-yl)methyl)piperazin-1-yl)-4-oxo-1,4-dihydro-[1,3]thiazeto[3,2-a]quinoline-3-carboxamide]: 720 nM.
Compound `Cc1ccc2c(c1)c(=O)c(C(=O)Nc1ccc(Oc3ncnc4[nH]cc(-c5ccccc5)c34)c(F)c1)c(C)n2-c1ccccc1` [GDL5000083, N-(3-fluoro-4-((5-phenyl-7H-pyrrolo[2,3-d]pyrimidine-4-yl)oxy)phenyl)-2,6-dimethyl-4-oxo-1-phenyl-1,4-hydroquinoline-3-carboxamide] displayed an IC50 of 618 nM.
The same measure for `CCN1CCN(c2cc3c(cc2F)c(=O)c(C(=O)Nc2ccc(Oc4ncnc5cc(OC)c(OC)cc45)c(F)c2)cn3C2CC2)CC1` [GDL5000093, 1-cyclopropyl-N-(4-(6,7-dimethoxyquinazolin-4-yloxy)-3-fluorophenyl)-7-(4-ethylpiperazin-1-yl)-6-fluoro-4-oxo-1,4-dihydroquinoline-3-carboxamide]: 277 nM; for `COc1cc2ncnc(Oc3ccc(NC(=O)c4cn(-c5ccc(F)cc5F)c5nc(N6CCC(N)C6)c(F)cc5c4=O)cc3F)c2cc1OC` (centres unmarked) [GDL5000101, 7-(3-aminopyrrolidin-1-yl)-1-(2,4-difluorophenyl)-N-(4-(6,7-dimethoxyquinazolin-4-yloxy)-3-fluorophenyl)-6-fluoro-4-oxo-1,4-dihydro-1,8-naphthyridine-3-carboxamide]: 81 nM.
Compound `CCn1cc(C(=O)Nc2ccc(Oc3ncnc4cc(OC)c(OC)cc34)c(F)c2)c(=O)c2cc(F)c(N3CCNCC3)nc21` [GDL5000102, N-(4-((6,7-dimethoxyquinazolin-4-yl)oxy)-3-fluorophenyl)-1-ethyl-6-fluoro-4-oxo-7-(piperazin-1-yl)-1,4-dihydro-1,8-naphthyridine-3-carboxamide] gave an IC50 of 64 nM.
Turning to `COc1cc2ncnc(Oc3ccc(NC(=O)c4cn5c6c(c(N7CCN(C)CC7)c(F)cc6c4=O)OC[C@@H]5C)cc3F)c2cc1OC` [GDL5000111, (S)—N-(4-((6,7-dimethoxyquinazolin-4-yl)oxy)-3-fluorophenyl)-9-fluoro-3-methyl-10-(4-methylpiperazin-1-yl)-7-oxo-3,7-dihydro-2H-[1,4]oxazino[2,3,4-ij]quinoline-6-carboxamide], 1080 nM corresponded to half-maximal inhibition (IC50).
With `Cc1c(C(=O)Nc2ccc(Oc3ccnc4[nH]nc(-c5ccccc5)c34)c(F)c2)c(=O)c2cc(Cl)ccc2n1C` [TL50025, 6-chloro-N-(3-fluoro-4-((3-phenyl-1H-pyrazolo[3,4-b]pyridin-4-yl)oxy)phenyl)-1,2-dimethyl-4-oxo-1,4-dihydroquinoline-3-carboxamide] the figure was 569 nM.
For `Cc1c(C(=O)Nc2ccc(Oc3ncnc4[nH]ccc34)c(F)c2)c(=O)c2cc(Cl)ccc2n1C` [TL50046, N-(4-((7H-pyrrolo[2,3-d]pyrimidin-4-yl)oxy)-3-fluorophenyl)-6-chloro-1,2-dimethyl-4-oxo-1,4-dihydroquinoline-3-carboxamide], the IC50 was greater than 10000 nM.
In the case of `Cc1c(C(=O)Nc2ccc(Oc3ncnc4[nH]cc(-c5ccccc5)c34)c(F)c2)c(=O)c2cc(Cl)ccc2n1C` [TL50053, 6-chloro-N-(3-fluoro-4-((5-phenyl-7H-pyrrolo[2,3-d]pyrimidin-4-yl)oxy)phenyl)-1,2-dimethyl-4-oxo-1,4-dihydroquinoline-3-carboxamide], it took 1890 nM to reach half-maximal inhibition (IC50).
The same measure for `Cc1c(C(=O)Nc2ccc(Oc3ncnc4[nH]cc(-c5ccccc5)c34)c(F)c2)c(=O)c2ccccc2n1C` [TL50054, N-(3-fluoro-4-((5-phenyl-7H-pyrrolo[2,3-d]pyrimidin-4-yl)oxy)phenyl)-1,2-dimethyl-4-oxo-1,4-dihydroquinoline-3-carboxamide]: greater than 10000 nM; for `Cc1c(C(=O)Nc2ccc(Oc3ncnc4[nH]cc(-c5ccccc5)c34)c(F)c2)c(=O)c2ccc(Cl)cc2n1C` [TL50080, 7-chloro-N-(3-fluoro-4-((5-phenyl-7H-pyrrolo[2,3-d]pyrimidin-4-yl)oxy)phenyl)-1,2-dimethyl-4-oxo-1,4-dihydroquinoline-3-carboxamide]: greater than 10000 nM.
With `Cc1c(C(=O)Nc2ccc(Oc3ncnc4[nH]cc(-c5ccccc5)c34)c(F)c2)c(=O)c2c(Cl)cccc2n1C` [TL50081, 5-chloro-N-(3-fluoro-4-((5-phenyl-7H-pyrrolo[2,3-d]pyrimidin-4-yl)oxy)phenyl)-1,2-dimethyl-4-oxo-1,4-dihydroquinoline-3-carboxamide] the figure was greater than 10000 nM; with `Cc1c(C(=O)Nc2ccc(Oc3ncnc4[nH]cc(-c5ccccc5)c34)c(F)c2)c(=O)c2ccc(C(F)(F)F)cc2n1C` [TL50086, N-(3-fluoro-4-(5-phenyl-7H-pyrrolo[2,3-d]pyrimidin-4-yloxy)phenyl)-1,2-dimethyl-4-oxo-7-(trifluoromethyl)-1,4-dihydroquinoline-3-carboxamide], greater than 10000 nM.
In turn, `Cc1c(C(=O)Nc2ccc(Oc3ccnc4[nH]ccc34)c(F)c2)c(=O)c2cc(Cl)ccc2n1C` [TL50090, N-(4-((1H-pyrrolo[2,3-b]pyridin-4-yl)oxy)-3-fluorophenyl)-6-chloro-1,2-dimethyl-4-oxo-1,4-dihydroquinoline-3-carboxamide] had an IC50 of 2630 nM.
In turn, `Cc1ccc2c(c1)c(=O)c(C(=O)Nc1ccc(Oc3ncnc4[nH]cc(-c5ccccc5)c34)c(F)c1)c(C)n2C` [TL50115, N-(3-fluoro-4-(5-phenyl-7H-pyrrolo[2,3-d]pyrimidin-4-yloxy)phenyl)-1,2,6-trimethyl-4-oxo-1,4-dihydroquinoline-3-carboxamide] displayed an IC50 of 102 nM. Compared with the last compound, the IC50 is about 26-fold lower.
The compound `Cc1c(C(=O)Nc2ccc(Oc3ccnc4[nH]cc(-c5ccccc5)c34)c(F)c2)c(=O)c2cc(Cl)ccc2n1C` [TL50128, 6-chloro-N-(3-fluoro-4-((3-phenyl-1H-pyrrolo[2,3-b]pyridin-4-yl)oxy)phenyl)-1,2-dimethyl-4-oxo-1,4-dihydroquinoline-3-carboxamide] yielded a half-inhibitory concentration (IC50) of 211 nM.
Compound `Cc1c(C(=O)Nc2ccc(Oc3ncnc4[nH]cc(-c5ccccc5)c34)c(F)c2)c(=O)c2cc(Br)ccc2n1C` [TL50133, 6-bromo-N-(3-fluoro-4-((5-phenyl-7H-pyrrolo[2,3-d]pyrimidin-4-yl)oxy)phenyl)-1,2-dimethyl-4-oxo-1,4-dihydroquinoline-3-carboxamide] came in with an IC50 of 3120 nM.
`Cc1ccc2c(c1)c(=O)c(C(=O)Nc1ccc(Oc3ncnc4c3c(-c3ccccc3)cn4C)c(F)c1)c(C)n2C` [TL50134, N-(3-fluoro-4-(7-methyl-5-phenyl-7H-pyrrolo[2,3-d]pyrimidin-4-yloxy)phenyl)-1,2,6-trimethyl-4-oxo-1,4-dihydroquinoline-3-carboxamide] returned a 50% inhibitory concentration (IC50) greater than 10000 nM.

The term IC50 denotes the concentration at which inhibition is half-maximal.
